Experimental data taken from patent publication US20120115877A1, “Facially Amphiphilic Compounds, Compositions, And Uses Thereof In Treating Cancer” (POLYMEDIX, INC., priority 2010, published 2012).

Experiments:
Assay type in all cases: cell-based, human
Details in all cases: 10 μM
SF-539 = assay: NCI-60 screen, CNS Cancer
Description: (§1) Several compounds were tested at single concentrations (10 μM) against 59 different human tumor cell lines, representing leukemia, melanoma and cancers of the lung, colon, brain, ovary, breast, prostate, and kidney (see, Table 3). The human tumor cell lines of the cancer screening panel were grown in RPMI 1640 medium containing 5% fetal bovine serum and 2 mM L-glutamine. For a typical screening experiment, cells were inoculated into 96 well microtiter plates in 100 μL at plating densities ranging from 5,000 to 40,000 cells/well depending on the doubling time of individual cell lines. After cell inoculation, the microtiter plates were incubated at 37° C., 5% CO2, 95% air and 100% relative humidity for 24 hours prior to addition of the compounds.
(§2) After 24 hours, two plates of each cell line were fixed in situ with TCA, to represent a measurement of the cell population for each cell line at the time of drug addition (Tz). Compounds were solubilized in dimethyl sulfoxide at 400-fold the desired final maximum test concentration and stored frozen prior to use. At the time of drug addition, an aliquot of frozen concentrate was thawed and diluted to twice the desired final maximum test concentration with complete medium containing 50 μg/ml gentamicin. Additional four, 10-fold or ½ log serial dilutions were made to provide a total of five compound concentrations plus control. Aliquots of 100 μl of these different drug dilutions were added to the appropriate microtiter wells already containing 100 μl of medium, resulting in the required final compound concentrations.
(§3) Following drug addition, the plates were incubated for an additional 48 hours at 37° C., 5% CO2, 95% air, and 100% relative humidity. For adherent cells, the assay was terminated by the addition of cold TCA. Cells were fixed in situ by the gentle addition of 50 μl of cold 50% (w/v) TCA (final concentration, 10% TCA) and incubated for 60 minutes at 4° C. The supernatant was discarded, and the plates were washed five times with tap water and air dried. Sulforhodamine B (SRB) solution (100 μl) at 0.4% (w/v) in 1% acetic acid was added to each well, and plates were incubated for 10 minutes at room temperature. After staining, unbound dye was removed by washing five times with 1% acetic acid and the plates were air dried. Bound stain was subsequently solubilized with 10 mM trizma base, and the absorbance was read on an automated plate reader at a wavelength of 515 nm. For suspension cells, the methodology was the same except that the assay was terminated by fixing settled cells at the bottom of the wells by gently adding 50 μl of 80% TCA (final concentration, 16% TCA). Using the seven absorbance measurements (time zero, (Tz), control growth, (C), and test growth in the presence of drug at the five concentration levels (Ti)), the percentage growth was calculated at each of the compound concentrations levels. Percentage growth inhibition was calculated as:
(§4) [(Ti−Tz)/(C−Tz)]×100 for concentrations for which Ti>/=Tz
(§5) [(Ti−Tz)/Tz]×100 for concentrations for which Ti<Tz.
(§6) Three dose response parameters were calculated for each compound. Growth inhibition of 50% (GI50) was calculated from [(Ti−Tz)/(C−Tz)]×100=50, which is the compound concentration resulting in a 50% reduction in the net protein increase (as measured by SRB staining) in control cells during the compound incubation. The compound concentration resulting in total growth inhibition (TGI) was calculated from Ti=Tz. The LC50 (concentration of compound resulting in a 50% reduction in the measured protein at the end of the compound treatment as compared to that at the beginning) indicating a net loss of cells following treatment was calculated from [(Ti−Tz)/Tz]×100=−50. Values were calculated for each of these three parameters if the level of activity was reached; however, if the effect was not reached or was exceeded, the value for that parameter was expressed as greater or less than the maximum or minimum concentration tested.

SF-295 = assay: NCI-60 screen, CNS Cancer
Description: as §1, §2, §3, §4, §5, §6

SF-268 = assay: NCI-60 screen, CNS Cancer
Description: as §1, §2, §3, §4, §5, §6

SNB-75 = assay: NCI-60 screen, CNS Cancer
Description: as §1, §2, §3, §4, §5, §6

U251 = assay: NCI-60 screen, CNS Cancer
Description: as §1, §2, §3, §4, §5, §6

SNB-19 = assay: NCI-60 screen, CNS Cancer
Description: as §1, §2, §3, §4, §5, §6

NCI/ADR-RES = assay: NCI-60 screen, Ovarian Cancer
Procedure, shortened: (§7)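 Single-dose 10 μM screen on human tumour lines in RPMI 1640 with 5% FBS, 48 h compound exposure at 37 °C after 24 h pre-plating. Read-out is SRB protein stain (515 nm) after TCA fixation. Percentage growth is calculated relative to time-zero and untreated controls; negative values indicate cell kill.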

OVCAR-3 = assay: NCI-60 screen, Ovarian Cancer
Procedure, shortened: as §7

UACC-62 = assay: NCI-60 screen, Melanoma
Description: as §1, §2, §3, §4, §5, §6

UACC-257 = assay: NCI-60 screen, Melanoma
Description: as §1, §2, §3, §4, §5, §6

MALME-3M = assay: NCI-60 screen, Melanoma
Description: as §1, §2, §3, §4, §5, §6

LOX IMVI = assay: NCI-60 screen, Melanoma
Description: as §1, §2, §3, §4, §5, §6

SK-MEL-5 = assay: NCI-60 screen, Melanoma
Description: as §1, §2, §3, §4, §5, §6

MDA-MB-435 = assay: NCI-60 screen, Melanoma
Description: as §1, §2, §3, §4, §5, §6

SK-MEL-2 = assay: NCI-60 screen, Melanoma
Description: as §1, §2, §3, §4, §5, §6

SK-MEL-28 = assay: NCI-60 screen, Melanoma
Description: as §1, §2, §3, §4, §5, §6

A498 = assay: NCI-60 screen, Renal Cancer
Description: as §1, §2, §3, §4, §5, §6

RXF 393 = assay: NCI-60 screen, Renal Cancer
Description: as §1, §2, §3, §4, §5, §6

SN12C = assay: NCI-60 screen, Renal Cancer
Description: as §1, §2, §3, §4, §5, §6

TK-10 = assay: NCI-60 screen, Renal Cancer
Description: as §1, §2, §3, §4, §5, §6

UO-31 = assay: NCI-60 screen, Renal Cancer
Description: as §1, §2, §3, §4, §5, §6

CAKI-1 = assay: NCI-60 screen, Renal Cancer
Description: as §1, §2, §3, §4, §5, §6

ACHN = assay: NCI-60 screen, Renal Cancer
Description: as §1, §2, §3, §4, §5, §6

HCT-15 = assay: NCI-60 screen, Colon Cancer
Description: as §1, §2, §3, §4, §5, §6

HT29 = assay: NCI-60 screen, Colon Cancer
Description: as §1, §2, §3, §4, §5, §6

COLO 205 = assay: NCI-60 screen, Colon Cancer
Description: as §1, §2, §3, §4, §5, §6

SW-620 = assay: NCI-60 screen, Colon Cancer
Description: as §1, §2, §3, §4, §5, §6

Compound | Percent Growth (SF-539) [%] | Percent Growth (SF-295) [%] | Percent Growth (SF-268) [%] | Percent Growth (SNB-75) [%] | Percent Growth (U251) [%] | Percent Growth (SNB-19) [%] | Percent Growth (NCI/ADR-RES) [%] | Percent Growth (OVCAR-3) [%] | Percent Growth (UACC-62) [%] | Percent Growth (UACC-257) [%] | Percent Growth (MALME-3M) [%] | Percent Growth (LOX IMVI) [%] | Percent Growth (SK-MEL-5) [%] | Percent Growth (MDA-MB-435) [%] | Percent Growth (SK-MEL-2) [%] | Percent Growth (SK-MEL-28) [%] | Percent Growth (A498) [%] | Percent Growth (RXF 393) [%] | Percent Growth (SN12C) [%] | Percent Growth (TK-10) [%] | further results
c1cc(-c2ccc3sc4ccc(-c5ccnc(N6CCNCC6)c5)cc4c3c2)cc(N2CCNCC2)n1 [Compound E] | 14.26 | −50.65 | −37.05 | −94.79 | −85.72 | −43.97 | 3.12 | −94.47 | −41.07 | −70.37 | −4.679 | −80.29 | 63.85 | −84.03 | −73.48 | −51.91 | 75.11 | −70.65 | −16.99 | −52.46 | Percent Growth (UO-31): −41.12%; Percent Growth (CAKI-1): −13.76%; Percent Growth (ACHN): −69.18%; Percent Growth (HCT-15): −54.01%; Percent Growth (HT29): −87.5%; Percent Growth (COLO 205): −59.52%; Percent Growth (SW-620): −87.3%
N=C(N)NCCCCC(=O)Nc1cc(C(F)(F)F)cc(NC(=O)c2cc(C(=O)Nc3cc(C(F)(F)F)cc(NC(=O)CCCCNC(=N)N)c3SCCN)ncn2)c1SCCN [Compound C] | 70.3 | 39.81 | 53.24 | 22.47 | 31.28 | 47.25 | 55.27 | 37.56 | 55.93 | 61.31 | 63.62 | 50.64 | 34.55 | 35.56 | 54.29 | 61.39 | 69.5 | 78.06 | 65.97 | 38.3 | Percent Growth (UO-31): 73.64%; Percent Growth (CAKI-1): 47.81%; Percent Growth (ACHN): 53.08%; Percent Growth (HCT-15): 33.27%; Percent Growth (HT29): 17.03%; Percent Growth (COLO 205): −73.2%; Percent Growth (SW-620): 34.39%
NCCCc1cccc(-c2ccc3sc4ccc(-c5cccc(CCCN)c5)cc4c3c2)c1 [Compound D] | 98.34 | 87.17 | 73.4 | 71.15 | 59.7 | 79.89 | 95.39 | 62.71 | 88.44 | 100 | 134.1 | 26.77 | 100.8 | 81.14 | 81 | 99.21 | 81.64 | 81.71 | 84.45 | 86.48 | Percent Growth (UO-31): 85.61%; Percent Growth (CAKI-1): 82.82%; Percent Growth (ACHN): 68.97%; Percent Growth (HCT-15): 88.15%; Percent Growth (HT29): 21.31%; Percent Growth (COLO 205): 31.52%; Percent Growth (SW-620): 15.48%
